Assay results taken from ChEMBL document CHEMBL4265903, “Current trends in Hedgehog signaling pathway inhibition by small molecules” (Bioorg Med Chem Lett, 2018).

Tests used:
Format in all cases: cell-based
[1] = Inhibition of Smo-mediated hedgehog signaling pathway in mouse Light2 cells in Shh conditioned medium after 48 hrs by Gli-Renilla luciferase reporter gene assay
[2] = Inhibition of hedgehog signaling pathway in mouse Light2 cells in Shh-N conditioned medium after 24 hrs by dual luciferase reporter gene assay
[3] = Inhibition of Smo-mediated hedgehog signaling pathway in mouse C3H10T1/2 cells after 6 days by Gli-dependent luciferase reporter gene assay; details: C3H 10T1/2, 144 h
[4] = Inhibition of hedgehog signaling pathway in mouse Light2 cells in Shh conditioned medium assessed as reduction in GLI1 expression by Western blot analysis
[5] = Inhibition of hedgehog signaling pathway in mouse Light2 cells in Shh conditioned medium assessed as reduction in GLI2 expression by Western blot analysis

SMILES	IC50 [1] [nM]	IC50 [3] [nM]	other results
CC[C@H](C)C(=O)O[C@@H](C)[C@]1(O)CC[C@@]2(O)[C@]1(C)[C@H](OC(=O)/C=C/c1ccccc1)C[C@@H]1[C@@]3(C)CC[C@H](O)CC3=CC[C@]12O			IC50 [2]: 2900 nM
COc1ccc(/C=C/C(=O)c2cc(OC)c(OC)cc2OC)cc1OC	4440		
COc1cc(C(=O)NC(=S)Nc2cccc(NC(=O)c3ccccc3)c2)cc(OC)c1OC		650	
C[C@@H]1CC[C@@]2(NC1)O[C@H]1C[C@H]3[C@@H]4CC=C5C[C@@H](O[C@@H]6O[C@H](CO)[C@H](O)[C@H](O[C@@H]7O[C@H](CO)[C@@H](O)[C@H](O)[C@H]7O)[C@H]6O[C@@H]6O[C@@H](C)[C@H](O)[C@@H](O)[C@H]6O)CC[C@]5(C)[C@H]4CC[C@]3(C)[C@H]1[C@@H]2C [SOLASONINE]			IC50 [4]: 2490 nM; IC50 [5]: 2300 nM
COc1cc(C(=O)NC(=N)Nc2ccc(C)c(NC(=O)c3ccc(-c4ccccc4)cc3)c2)cc(OC)c1OC		15	
CC[C@@H](C)C(=O)O[C@@H](C)[C@]1(O)CC[C@@]2(O)[C@]1(C)[C@H](OC(=O)/C=C/c1ccccc1)C[C@@H]1[C@@]3(C)CC[C@H](O)CC3=CC[C@]12O			IC50 [2]: 3700 nM

More lines, main results first:

IC50 [1] [nM]	IC50 [3] [nM]	SMILES	other results
1400		Cc1ccc(Cn2ncc3nc(-c4ccc(N5CCN(C(=O)CCc6c[nH]c7ccccc67)CC5)cc4)[nH]c32)cc1	
690		CCC(C)n1ncn(-c2ccc(N3CCN(c4ccc(OCC5COC(Cn6cncn6)(c6ccc(Cl)cc6Cl)O5)cc4)CC3)cc2)c1=O (stereo not given) [ITRACONAZOLE]	
	2.8	COc1cc(C(=O)NC(=N)Nc2ccc(C)c(NC(=O)c3ccc(CCc4ccccc4)cc3)c2)cc(OC)c1OC	
